Experimental data taken from US20230277546A1, “AGENT FOR SUPPRESSING POST-SURGICAL CANCER RECURRENCE AND/OR METASTASIS” (ONO PHARMACEUTICAL CO., LTD., priority 2017, published 2023).
Where a name gives a salt, the structure may show the parent alone.

Columns and labels:
[1] = system: non-small cell lung cancer; experiment: Multicenter, unblinded, randomized, controlled investigator-initiated clinical trial: perioperative landiolol hydrochloride to suppress postsurgical recurrence; assay type: in vivo, human; settings: 2.5 μg/kg/min at the beginning, adjusted 0.5 to 5 μg/kg/min; continuous iv from immediately before anesthetic induction for 72 hours
Experimental: Patients with non-small cell lung cancer who will undergo surgery for complete resection of the cancer are involved in the study. For evaluating effectiveness and safety of landiolol hydrochloride in the patients, a multicenter, unblinded, randomized, controlled, investigator-initiated clinical trial is carried out as described below. The control group includes the patients who undergo the surgery but are not treated with landiolol hydrochloride.
Primary endpoints: recurrence-free survival (RFS) over first two postoperative years and overall survival (OS)
Secondary endpoints: <Effectiveness> For example, whether the patients are subjected to treatment of recurrence or not, and if subjected, the period until the treatment; the time until OS or the treatment of recurrence, <Safety> adverse events, incidence of postoperative complication, blood pressure, 12-lead electrocardiogram, and general laboratory test
Dosage: 2.5 μg/kg/min at the beginning and adjusted in the range of 0.5 to 5 μg/kg/min
Administration period: continuous intravenous administration is started immediately before the anesthetic induction and kept for 72 hours

malignant lung tumor = experiment: Analysis of effects of landiolol hydrochloride in patients who underwent lung resection surgery (recurrence-free and overall survival, Kaplan-Meier); assay type: in vivo, human
Experimental: Ethics committee approval was obtained before the study was started. Among the patients who underwent lung lobectomy, the outcomes were compared between those who were treated with landiolol hydrochloride and those who were not treated with it.
For each patient the following information was drawn from the medical chart from May 2012 to Mar. 31, 2017 and recorded in clinical report form (CRF). • Background of the patient (date of birth, sex, stage of lung cancer, weight, height, and performance status) • Date of the lung cancer surgery • Whether landiolol hydrochloride was administered or not, and if administered, the dose thereof • Date on which recurrence was diagnosed (date of diagnostic imaging or date on which recurrence was clinically diagnosed) • Date on which recurrence-free survival was last confirmed • Date of death • Date on which survival was last confirmed • Whether adjuvant chemotherapy was applied or not
The 2-year recurrence-free survival rate was compared between the patients who had been treated with landiolol hydrochloride and the patients who had not been treated with it to evaluate the effect of landiolol hydrochloride.
Kaplan-Meier method as described below was employed to calculate the 2-year recurrence-free survival rate.
The recurrence was defined as follows; • The recurrence included both of recurrence diagnosed on the basis of diagnostic imaging and clinical recurrence diagnosed on the basis of aggravation of a symptom instead of the diagnostic imaging. The date of recurrence was the date of the diagnostic imaging or the date on which the clinical recurrence was diagnosed. Even if an increased tumor marker was detected previously, the fact alone was not regarded as indicating recurrence and the date of recurrence was the date of the diagnostic imaging or the date on which the clinical recurrence was diagnosed. When no recurrence was diagnosed during the observation period, the patients were censored on the day of final confirmation of recurrence-free survival. • When recurrence was diagnosed by the diagnostic imaging, the event was regarded as having occurred on the date of the diagnostic imaging that gave the definitive diagnosis, not the date of the diagnostic imaging that raised the suspicion of recurrence. When recurrence was clinically diagnosed, the event was regarded as having occurred on the date of the diagnosis. • Definitive diagnosis of recurrence may be based on biopsy analysis. When recurrence was successfully diagnosed by the clinical diagnosis before the biopsy analysis, the event was regarded as having occurred on the date of the clinical diagnosis. When recurrence was not successfully diagnosed by the clinical diagnosis alone, but finally diagnosed by the biopsy analysis, the event was regarded as having occurred on the date of the biopsy analysis. • Occurrence of any one of secondary cancer, metachronous double cancers, and metachronous multiple cancers was not regarded as the event or the censor. Unless another event was observed, the patient was regarded as being recurrence-free. […]
The recurrence-free survival and the overall survival were calculated according to the following equations; • The recurrence-free survival (days)=“date of diagnosis of recurrence or date of death for any cause, whichever came earlier”−“date of surgery”+1 • The overall survival (days)=“date of death for any cause”−“date of surgery”+1 […]

[2] = vs control group without administration, after lung cancer surgery

Question: For CC1(C)OC[C@@H](COC(=O)CCc2ccc(OC[C@@H](O)CNCCNC(=O)N3CCOCC3)cc2)O1 [landiolol hydrochloride, Landiolol hydrochloride], which “effect to suppress recurrence and/or metastasis of the cancer” value [1] is on record?
Answer: confirms the effect

Question: And the “Censor, (%)” value (malignant lung tumor; censored patients, first two postoperative years, test group N = 28)?
Answer: (89.3) %

Question: And the “2-year Recurrence-free survival rate [95% CI]” value (malignant lung tumor; patients after lung resection surgery, intravenous continuous 2.5 μg/kg/min from induction to completion of anesthesia, N = 28, Kaplan-Meier)?
Answer: 89.3%

Question: What about the “Event, (%)” value (malignant lung tumor; recurrence or death events within first two postoperative years, test group N = 28, 2.5 μg/kg/min iv continuous during anesthesia) of the same compound?
Answer: (10.7) %

Question: And the “overall survival (Kaplan-Meier curve, FIG. 2)” value (malignant lung tumor; [2])?
Answer: tendency that the administration of landiolol hydrochloride prolongs

Question: And the “recurrence-free survival (Kaplan-Meier curve, FIG. 1)” value (malignant lung tumor; [2])?
Answer: tendency that the administration of landiolol hydrochloride prolongs
